Data reported in the NIST ThermoML archive (doi:10.1021/je800085u).

Assay: mn = molality of the nth substance listed, in mol/kg
Settings: 298.15 K, 101 kPa, Liquid, Taylor dispersion method

CCCCCCCCCCP(C)(C)=O [decyldimethylphosphine oxide] + O
Settings	binary diffusion coefficient [m2/s]
m1 = 0	5.9e-10
m1 = 0.002	5.8e-10
m1 = 0.003	5.28e-10
m1 = 0.004	2.07e-10
m1 = 0.0077	1.75e-10
m1 = 0.0111	1.56e-10
m1 = 0.0176	1.69e-10
m1 = 0.0215	1.63e-10
m1 = 0.0296	1.55e-10
m1 = 0.04	1.58e-10
